{"source": "patent US20140130208A1", "about": "“METHODS AND MEANS TO PRODUCE ABIOTIC STRESS TOLERANT PLANTS” (VIB VZW, priority 2011, published 2014)", "system": "Arabidopsis thaliana leaf 3", "experiment": "Leaf 3 area of ACC deaminase transgenic lines and wild type after 48 hours on mild mannitol stress", "format": "in vivo", "conditions": "wild type of the pGRF5::bACD experiment; 48 hours on 25 mM mannitol", "from_the_text": "In this experiment we aimed for a downregulation of the ethylene signaling pathway only in proliferating leaf cells (chimeric genes with 2 different meristematic promoters: p4TM1 and pGR5) as compared to a downregulation of the ethylene signaling in the entire plant (chimeric gene with the […] promoter). The transgene which was used for downregulation of the ethylene signaling was the ACC deaminase (a bacterial form and a plant form), an enzyme that degrades the ethylene precursor ACC. […]\nPlant were transferred to plates containing 25 mM mannitol, hereby exposing them to mild mannitol stress, at a stage where the third leaf is fully proliferating, allowing to study the response of proliferating leaf cells to stress. After 48 hours on mild mannitol stress, leaf 3 was microdissected and its size was measured to calculate the extent of growth inhibition. […]\nThe plant growth and stress set-up was the same as previously described (Skirycz et al (2011) Plant Cell 23: 1876-1888). […] Slides were photographed, and leaf area was measured using ImageJ 1.41o."}
{"smiles": "OC[C@@H](O)[C@@H](O)[C@H](O)[C@H](O)CO", "note": "[mannitol]", "values": [{"measurement": "growth inhibition of leaf 3 area", "value": "about 10%"}]}
